Measured values taken from US20210228545A1, “METHODS OF TREATING CONDITIONS RELATED TO THE S1P1 RECEPTOR” (Arena Pharmaceuticals, Inc., priority 2018, published 2021).
“Also recorded” adds a separate entry of the source.

Key:
[1] = molecular target: rCYP2C8 (Homo sapiens, UniProt P10632); assay: Compound 1 loss on incubation with rCYP enzymes; format: in vitro ADME; details: 120 minutes of incubation
[2] = molecular target: T1, OAT1 (Homo sapiens, UniProt Q4U2R8); assay: Transporter inhibition, HEK293 cells; format: in vitro ADME
T1 construct: expressed in transfected cells; host or cells: HEK293
T1 sequence (Q4U2R8 1-563): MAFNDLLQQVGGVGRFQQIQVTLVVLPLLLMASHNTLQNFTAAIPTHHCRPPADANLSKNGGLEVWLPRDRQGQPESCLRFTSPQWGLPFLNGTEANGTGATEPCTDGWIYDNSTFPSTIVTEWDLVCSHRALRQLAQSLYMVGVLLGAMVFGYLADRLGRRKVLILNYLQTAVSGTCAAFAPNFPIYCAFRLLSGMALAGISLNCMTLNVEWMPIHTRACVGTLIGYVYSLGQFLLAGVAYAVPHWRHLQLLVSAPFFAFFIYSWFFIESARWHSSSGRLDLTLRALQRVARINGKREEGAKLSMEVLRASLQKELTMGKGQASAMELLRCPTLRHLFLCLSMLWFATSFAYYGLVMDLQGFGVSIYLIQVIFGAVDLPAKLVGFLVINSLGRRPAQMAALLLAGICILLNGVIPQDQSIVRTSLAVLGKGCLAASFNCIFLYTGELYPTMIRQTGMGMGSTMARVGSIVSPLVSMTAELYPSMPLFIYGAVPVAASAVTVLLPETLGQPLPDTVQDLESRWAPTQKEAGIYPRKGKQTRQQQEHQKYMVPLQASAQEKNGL

[3] = test system: peripheral blood lymphocyte (PBL) counts; assay: Phase 1 single dosing study: peripheral blood lymphocyte counts; format: in vivo, human
Protocol: Compound 1 was administered as the L-arginine salt.
There were no other clinically significant safety issues with respect to vital signs, ECGs, pulmonary function tests, ophthalmoscopy, or clinical laboratory tests with the exception of expected pharmacological effects on peripheral blood lymphocyte counts. Dosing at the 3 and 5 mg induced a dose responsive decline in the absolute number of peripheral blood B cells, T cells, NK cells, and all T cell subsets except TEM cells. Total peripheral blood lymphocyte (PBL) counts were reduced by 2-4 hours after dosing, reaching a nadir by hour 8 which persisted for 24 hours with recovery to baseline over the next 4 days. PBL counts were reduced by ˜40% and ˜55% at the 3 mg and 5 mg dose levels. […] These findings are therefore consistent with the anticipated pharmacodynamic effects of S1P receptor agonists in preclinical studies and in humans (Gergely et al., Br Pharmacol 167(5):1035-1047, 2012; Brossard et al., Br J Clin Pharmacol 2013 April 18. doi:10.1111/bcp.12129. [Epub ahead of print] PubMed PMID: 23594176, and Kovarik et al., J Clin Pharmacol 44(5):532-537, 2004.)

[4] = molecular target: P-gp (Homo sapiens, UniProt P08183); assay: Transporter inhibition, Caco-2 cells
Sequence of P-gp (P08183 whole entry): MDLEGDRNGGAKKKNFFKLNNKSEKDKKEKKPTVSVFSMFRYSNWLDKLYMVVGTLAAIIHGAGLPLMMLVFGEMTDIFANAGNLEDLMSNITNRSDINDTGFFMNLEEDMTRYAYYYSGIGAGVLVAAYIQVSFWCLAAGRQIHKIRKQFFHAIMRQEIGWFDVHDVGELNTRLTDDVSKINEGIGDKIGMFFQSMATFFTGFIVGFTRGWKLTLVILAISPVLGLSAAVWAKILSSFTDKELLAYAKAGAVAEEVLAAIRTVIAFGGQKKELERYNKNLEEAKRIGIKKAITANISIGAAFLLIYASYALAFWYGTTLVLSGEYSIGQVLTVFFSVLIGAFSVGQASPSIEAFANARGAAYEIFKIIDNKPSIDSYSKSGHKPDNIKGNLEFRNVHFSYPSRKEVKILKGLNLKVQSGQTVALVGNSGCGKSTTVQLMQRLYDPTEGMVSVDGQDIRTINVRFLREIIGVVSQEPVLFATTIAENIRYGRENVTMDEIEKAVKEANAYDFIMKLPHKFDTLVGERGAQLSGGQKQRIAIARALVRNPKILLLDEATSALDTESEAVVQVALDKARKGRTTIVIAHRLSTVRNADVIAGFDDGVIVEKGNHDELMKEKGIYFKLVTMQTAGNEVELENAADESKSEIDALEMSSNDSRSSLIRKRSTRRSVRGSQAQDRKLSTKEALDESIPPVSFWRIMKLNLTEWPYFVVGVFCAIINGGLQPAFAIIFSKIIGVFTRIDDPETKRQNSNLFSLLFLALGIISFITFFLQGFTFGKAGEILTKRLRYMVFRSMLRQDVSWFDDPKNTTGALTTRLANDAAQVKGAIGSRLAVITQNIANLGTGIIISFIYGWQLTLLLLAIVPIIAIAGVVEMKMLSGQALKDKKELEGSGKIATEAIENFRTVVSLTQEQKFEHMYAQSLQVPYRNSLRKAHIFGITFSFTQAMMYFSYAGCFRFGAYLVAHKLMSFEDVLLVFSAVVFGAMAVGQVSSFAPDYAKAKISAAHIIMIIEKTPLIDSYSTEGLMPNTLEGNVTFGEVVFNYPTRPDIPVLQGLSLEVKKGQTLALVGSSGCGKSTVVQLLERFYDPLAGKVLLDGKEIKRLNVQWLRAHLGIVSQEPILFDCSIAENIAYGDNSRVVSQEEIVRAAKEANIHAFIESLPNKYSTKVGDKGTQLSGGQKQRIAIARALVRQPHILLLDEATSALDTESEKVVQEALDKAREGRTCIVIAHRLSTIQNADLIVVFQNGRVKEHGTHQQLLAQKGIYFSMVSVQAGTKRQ

[5] = test system: CYP1A2 mRNA; assay: CYP induction in cultured human hepatocytes; format: in vitro ADME; details: up to 10 μM
[6] = test system: CYP3A4; assay: CYP induction in cultured human hepatocytes; format: in vitro ADME; details: criteria >2-fold mRNA increase and ≥20% of positive control
[7] = molecular target: T1, OAT1; assay: Transporter substrate evaluation, HEK293 cells; format: in vitro ADME; details: 1 and 10 μM
[8] = molecular target: CYP1A2 (Homo sapiens, UniProt P05177); assay: Direct inhibition of CYP activity in human liver microsomes; format: in vitro ADME; details: up to 10 μM
Sequence of CYP1A2 (P05177 whole entry): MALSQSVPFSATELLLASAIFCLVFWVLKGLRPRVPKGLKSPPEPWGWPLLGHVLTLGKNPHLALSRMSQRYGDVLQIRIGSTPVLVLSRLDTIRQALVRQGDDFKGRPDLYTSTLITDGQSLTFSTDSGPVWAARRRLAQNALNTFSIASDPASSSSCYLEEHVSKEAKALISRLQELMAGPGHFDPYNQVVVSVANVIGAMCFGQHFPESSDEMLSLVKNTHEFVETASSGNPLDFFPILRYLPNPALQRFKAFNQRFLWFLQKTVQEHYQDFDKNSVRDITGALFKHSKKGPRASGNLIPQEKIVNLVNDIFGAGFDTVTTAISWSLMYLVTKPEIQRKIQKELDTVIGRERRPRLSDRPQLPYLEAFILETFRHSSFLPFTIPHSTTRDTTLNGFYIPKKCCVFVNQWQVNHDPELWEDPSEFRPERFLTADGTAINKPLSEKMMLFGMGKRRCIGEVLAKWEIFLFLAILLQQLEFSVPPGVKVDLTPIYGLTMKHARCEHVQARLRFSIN
From the text: (§1) Known metabolism-dependent and/or direct inhibitors of CYP and UGT enzymes were included as positive controls, as applicable.

[9] = molecular target: T2, CYP2C8 (Homo sapiens, UniProt P10632); assay: as above; format: in vitro ADME
T2 construct: human liver microsomes from a pool of 200 individuals; from tissue; host or cells: human liver microsomes, pool of 200 individuals
T2 sequence (P10632 1-490): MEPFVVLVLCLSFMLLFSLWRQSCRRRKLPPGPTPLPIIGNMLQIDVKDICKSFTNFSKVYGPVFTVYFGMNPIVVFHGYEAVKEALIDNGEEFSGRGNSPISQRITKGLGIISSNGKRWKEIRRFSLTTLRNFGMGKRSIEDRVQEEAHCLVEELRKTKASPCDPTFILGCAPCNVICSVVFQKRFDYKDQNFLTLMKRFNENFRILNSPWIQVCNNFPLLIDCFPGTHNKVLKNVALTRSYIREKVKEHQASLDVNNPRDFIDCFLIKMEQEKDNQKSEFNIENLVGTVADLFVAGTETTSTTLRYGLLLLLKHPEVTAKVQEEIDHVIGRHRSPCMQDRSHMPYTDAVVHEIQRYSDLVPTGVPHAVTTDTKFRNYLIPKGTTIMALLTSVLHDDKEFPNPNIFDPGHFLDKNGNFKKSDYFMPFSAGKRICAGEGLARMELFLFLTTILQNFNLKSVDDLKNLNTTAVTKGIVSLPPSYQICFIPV
From the text: as §1

[10] = molecular target: T3, CYP2C19 (Homo sapiens, UniProt P33261); assay: as above; format: in vitro ADME; details: up to 10 μM
T3 construct: human liver microsomes from a pool of 200 individuals; from tissue; host or cells: human liver microsomes, pool of 200 individuals
T3 sequence (P33261 whole entry): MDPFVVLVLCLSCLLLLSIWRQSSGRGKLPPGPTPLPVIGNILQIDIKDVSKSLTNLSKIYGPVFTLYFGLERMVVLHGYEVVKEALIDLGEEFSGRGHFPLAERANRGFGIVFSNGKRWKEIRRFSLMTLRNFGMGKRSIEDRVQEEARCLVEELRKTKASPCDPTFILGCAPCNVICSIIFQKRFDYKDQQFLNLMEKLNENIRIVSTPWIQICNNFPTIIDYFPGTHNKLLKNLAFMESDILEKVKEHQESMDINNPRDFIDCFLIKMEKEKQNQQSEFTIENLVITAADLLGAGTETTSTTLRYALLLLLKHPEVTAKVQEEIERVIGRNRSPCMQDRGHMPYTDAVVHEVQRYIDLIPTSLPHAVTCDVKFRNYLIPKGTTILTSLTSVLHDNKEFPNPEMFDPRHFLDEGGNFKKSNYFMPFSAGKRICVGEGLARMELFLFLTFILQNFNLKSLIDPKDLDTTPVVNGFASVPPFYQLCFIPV
From the text: as §1

[11] = molecular target: T4, CYP2B6 (Homo sapiens, UniProt P20813); assay: as above; format: in vitro ADME; details: up to 10 μM
T4 construct: human liver microsomes from a pool of 200 individuals; from tissue; host or cells: human liver microsomes, pool of 200 individuals
T4 sequence (P20813 whole entry): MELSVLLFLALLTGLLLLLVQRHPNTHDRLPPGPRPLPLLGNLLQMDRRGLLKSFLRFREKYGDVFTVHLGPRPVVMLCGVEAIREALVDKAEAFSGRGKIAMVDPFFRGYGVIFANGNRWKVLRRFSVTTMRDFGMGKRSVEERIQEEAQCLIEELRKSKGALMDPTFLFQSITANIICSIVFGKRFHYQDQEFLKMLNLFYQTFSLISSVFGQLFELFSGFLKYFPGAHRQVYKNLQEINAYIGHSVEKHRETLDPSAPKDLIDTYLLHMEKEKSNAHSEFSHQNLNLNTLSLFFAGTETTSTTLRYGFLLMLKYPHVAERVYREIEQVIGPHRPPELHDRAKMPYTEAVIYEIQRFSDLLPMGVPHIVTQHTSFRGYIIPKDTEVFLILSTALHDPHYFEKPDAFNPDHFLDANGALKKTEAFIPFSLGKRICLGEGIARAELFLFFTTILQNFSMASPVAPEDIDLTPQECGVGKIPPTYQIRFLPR
From the text: as §1

[12] = molecular target: T5, CYP2C9 (Homo sapiens, UniProt P11712); assay: as above; format: in vitro ADME; details: up to 10 μM
T5 construct: human liver microsomes from a pool of 200 individuals; from tissue; host or cells: human liver microsomes, pool of 200 individuals
T5 sequence (P11712 whole entry): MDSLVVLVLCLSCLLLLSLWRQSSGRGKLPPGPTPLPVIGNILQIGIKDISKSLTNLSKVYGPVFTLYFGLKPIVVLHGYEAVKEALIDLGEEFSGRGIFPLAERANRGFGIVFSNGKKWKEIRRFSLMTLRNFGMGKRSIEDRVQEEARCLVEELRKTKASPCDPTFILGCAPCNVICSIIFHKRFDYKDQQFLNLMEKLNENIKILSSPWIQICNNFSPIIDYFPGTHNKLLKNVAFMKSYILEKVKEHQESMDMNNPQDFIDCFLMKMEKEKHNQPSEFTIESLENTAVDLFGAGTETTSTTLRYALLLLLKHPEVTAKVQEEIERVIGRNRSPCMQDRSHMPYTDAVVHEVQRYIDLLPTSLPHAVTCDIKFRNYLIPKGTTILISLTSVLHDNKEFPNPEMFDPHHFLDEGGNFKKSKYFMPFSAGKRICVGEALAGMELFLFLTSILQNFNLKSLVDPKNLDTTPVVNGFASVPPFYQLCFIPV
From the text: as §1

[13] = molecular target: T6, CYP2D6 (Homo sapiens, UniProt P10635); assay: as above; format: in vitro ADME; details: up to 10 μM
T6 construct: human liver microsomes from a pool of 200 individuals; from tissue; host or cells: human liver microsomes, pool of 200 individuals
T6 sequence (P10635 whole entry): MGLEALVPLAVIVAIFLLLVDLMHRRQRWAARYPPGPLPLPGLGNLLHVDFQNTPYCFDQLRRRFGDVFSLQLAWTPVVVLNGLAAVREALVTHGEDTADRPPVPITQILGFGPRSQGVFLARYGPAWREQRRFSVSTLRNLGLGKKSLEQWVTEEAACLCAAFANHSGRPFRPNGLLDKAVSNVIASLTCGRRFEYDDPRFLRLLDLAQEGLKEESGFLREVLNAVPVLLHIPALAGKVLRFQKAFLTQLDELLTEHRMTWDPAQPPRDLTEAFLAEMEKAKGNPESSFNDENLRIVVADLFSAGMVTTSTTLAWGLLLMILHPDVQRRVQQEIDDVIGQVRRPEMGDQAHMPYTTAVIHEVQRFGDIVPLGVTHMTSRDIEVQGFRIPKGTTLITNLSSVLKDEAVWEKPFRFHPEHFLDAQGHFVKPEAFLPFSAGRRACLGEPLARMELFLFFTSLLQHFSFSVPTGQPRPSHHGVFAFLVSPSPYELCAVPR
From the text: as §1

[14] = test system: CYP3A4/5; assay: as above; format: in vitro ADME; details: up to 10 μM
From the text: as §1

SMILES: O=C(O)C[C@H]1CCc2c1[nH]c1ccc(OCc3ccc(C4CCCC4)c(C(F)(F)F)c3)cc21 [Compound 1, (R)-2-(7-(4-cyclopentyl-3-(trifluoromethyl)benzyloxy)-1,2,3,4-tetrahydrocyclopenta[b]indol-3-yl)acetic acid]
- Compound 1 loss with rCYP2C8 [1]: up to 75%
- Reduction of uptake rate of p-aminohippurate into OAT1-expressing cells (inhibition) ([2]; 1 and 10 μM): less than 50%
- IC50 ([2]; HEK293 cells, [3H]-p-aminohippurate (1 μM), 1 and 10 μM tested): > 10 µM
- Reduction of PBL counts ([3]; 3 mg single dose): ~40%
- Reduction of PBL counts ([3]; 5 mg single dose): ~55%
- Time after dosing by which total PBL counts were reduced ([3]; 3 and 5 mg): 2 to 4 h
- Time of PBL nadir ([3]; 3 and 5 mg, persisted for 24 hours): ≤ 8 h
- Recovery of PBL counts to baseline ([3]; after nadir): 4 days
- P-gp inhibition ([4]; 10 μM Compound 1): no P-gp inhibition
- Reduction of efflux ratio of digoxin (10 μM) across Caco-2 cells ([4]; 100 μM Compound 1): 50%
- Induction potential on CYP1A2 mRNA [5]: no induction potential; also recorded: not a potential inducer
- Induction potential for CYP3A4 [6]: no induction potential; also recorded: not a potential inducer
- Potential substrate of OAT1 ([7]; HEK293 cells): not a substrate of OAT1 and not a substrate and No
- Uptake ratio into OAT1-expressing cells ([7]; absence and presence of probenecid (100 μM)): less than two
- Direct inhibition of CYP1A2 activity [8]: Little or no direct inhibition
- inhibition at 1 µM [9]: 22%
- inhibition at 10 µM [9]: ~100%
- Direct inhibition of CYP2C19 activity [10]: Little or no direct inhibition
- Direct inhibition of CYP2B6 activity [11]: Little or no direct inhibition
- Direct inhibition of CYP2C9 activity [12]: Little or no direct inhibition
- Direct inhibition of CYP2D6 activity [13]: Little or no direct inhibition
- Direct inhibition of CYP3A4/5 activity [14]: Little or no direct inhibition
